Assay results reported in patent US12044651B2, “Sensor device and methods” (SCENTIAN BIO LIMITED, priority 2016, dated 2024).
Where two headings read alike, the source gives them in different places. Marks after values point to notes of the source that are not given here.

Assays:
[1] = target: T1, OR35a (Drosophila melanogaster, UniProt Q9V3Q2); assay: CNT-FET sensor covalently functionalized with Or35a nanodiscs (Example 3); type: binding
T1 sequence (Q9V3Q2 1-409): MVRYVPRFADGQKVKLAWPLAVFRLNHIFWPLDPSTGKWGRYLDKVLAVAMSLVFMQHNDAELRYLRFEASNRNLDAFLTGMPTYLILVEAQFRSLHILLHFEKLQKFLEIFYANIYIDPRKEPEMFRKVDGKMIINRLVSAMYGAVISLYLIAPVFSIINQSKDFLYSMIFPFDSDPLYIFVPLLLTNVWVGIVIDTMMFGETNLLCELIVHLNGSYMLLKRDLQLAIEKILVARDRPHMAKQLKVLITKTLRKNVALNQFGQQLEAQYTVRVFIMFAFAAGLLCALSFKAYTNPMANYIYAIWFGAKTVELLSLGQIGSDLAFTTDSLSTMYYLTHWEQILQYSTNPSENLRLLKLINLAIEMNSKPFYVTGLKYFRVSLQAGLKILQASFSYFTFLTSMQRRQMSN
Experimental: The dispersion was sonicated until a clear solution was obtained. The temperature was kept at 25° C. throughout the sonication process. The thiolpyridine solution was prepared by dissolving 10 mg of 2-Mercaptopyridine (99%, Sigma Aldrich) in 1 ml of methanol. The solution was spun coated on a polydimethylsiloxane (PDMS) surface at 2000 rpm for one minute. Before the spin coating process, the PDMS surface was cleaned by a 50 W Oxygen plasma for 1 minute to improve the wettability. The cleaned substrates were placed upside down on the PDMS surface for three minutes and washed in ethanol to remove the excess thiolpyridine molecules. Then the substrates were transferred into the CNT suspension and immersed into the suspension for 10 minutes. The samples were removed from the suspension and dipped into Ethanol for another 10 minutes to remove the thiolpyridine molecules in the SWNT network. The alignment markers were deposited by defining the markers by photolithography and thermal evaporation of 5 nm Chromium and 50 nm of Gold. The metal Lift off was done by acetone immersion for 15 minutes followed by an Isopropyl alcohol (IPA) wash and N2 blow dry. The result is a uniform thin film CNT network covering the entire substrate surface. The purification procedure is a variation on the one detailed in […] et al. 2013^14. […] Purity was assessed on Coomassie stained SDS-PAGE gels and Western blotting. […]

[2] = target: T2, DmOr22a/Orco (Drosophila melanogaster, UniProt P81909); details: cited from earlier work; for Sensitivity limit (Log): given as Log, estimated visually from graph
T2 sequence (P81909 1-397): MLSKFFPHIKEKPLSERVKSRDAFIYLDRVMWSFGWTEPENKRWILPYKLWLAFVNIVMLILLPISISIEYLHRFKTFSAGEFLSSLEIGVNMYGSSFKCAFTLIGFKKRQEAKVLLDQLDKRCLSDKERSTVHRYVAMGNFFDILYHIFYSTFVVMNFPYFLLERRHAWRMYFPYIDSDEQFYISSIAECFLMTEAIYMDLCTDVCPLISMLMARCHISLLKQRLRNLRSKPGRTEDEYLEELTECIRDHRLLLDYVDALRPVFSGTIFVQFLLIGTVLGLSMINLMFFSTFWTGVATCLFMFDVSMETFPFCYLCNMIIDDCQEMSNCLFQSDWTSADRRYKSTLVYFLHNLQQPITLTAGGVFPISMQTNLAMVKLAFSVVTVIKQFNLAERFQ
T2 sequence (Q9VNB5 1-486 partner): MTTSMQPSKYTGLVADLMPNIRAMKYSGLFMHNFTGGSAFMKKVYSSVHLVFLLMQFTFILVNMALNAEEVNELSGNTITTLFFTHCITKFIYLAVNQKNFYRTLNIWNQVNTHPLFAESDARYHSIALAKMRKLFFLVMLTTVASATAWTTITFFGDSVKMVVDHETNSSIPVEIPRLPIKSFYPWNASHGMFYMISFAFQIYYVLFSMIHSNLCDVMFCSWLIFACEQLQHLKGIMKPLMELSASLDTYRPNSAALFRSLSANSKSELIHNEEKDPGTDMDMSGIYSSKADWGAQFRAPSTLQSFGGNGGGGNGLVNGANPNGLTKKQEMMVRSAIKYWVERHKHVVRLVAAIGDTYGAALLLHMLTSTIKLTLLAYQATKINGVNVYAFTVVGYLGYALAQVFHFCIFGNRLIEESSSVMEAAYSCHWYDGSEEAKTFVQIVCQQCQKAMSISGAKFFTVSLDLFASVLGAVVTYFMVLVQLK

SMILES	limit of detection ([1]; nanodiscs 1:100 dilution)	concentration at which clear electronic response starts ([1]; real time current measurement mode) [fM]	Sensitivity limit (Log) ([2]; ref 23)	EC50 ([2]; ref 24) [µM]	Sensitivity limit (Log) ([2]; ref 24)
CCC/C=C/C=O [E2-hexenal]	below 1 fM	1	–	–	–
CCCCCC(=O)OC [methyl hexanoate]	–	–	Log = −7.5*	1.17	Log = −7*
